From patent US6806281B2 (Georgetown University, priority 1997, dated 2004)

Tests used:
dopamine transporter [1] = molecular target: T1, dopamine transporter (Rattus norvegicus, UniProt P23977); assay: biochemical; conditions: IC50 (nM) [3H]WIN 35,428 binding, rat striatal membranes
dopamine transporter [2] = molecular target: T1, dopamine transporter; assay: biochemical; conditions: IC50 (nM) [3H]dopamine uptake, rat striatal synaptosomes
[3] = test system: striatal dopamine transporter; assay: PET evaluation of 11C-labeled isomers; conditions: for specific binding to striatal dopamine transporter sites: in vivo PET
Description: The products were purified by HPLC on a C-18 cartridge eluted with MeOH:phosphate/triethylamine buffer, pH 7.2 (60:40).
After passage through a 0.22 μm filter, the sterile products were administered to three Rhesus monkeys and dynamic PET images were acquired over 90 minutes.

[4] = Intravenous drug self-administration; type: in vivo, rats; conditions: for self-administration responding: i.v., FR10, cocaine 1 mg/kg/infusion, analog 2 0.3-3 mg/kg/infusion, analog 3 0.125-0.5 mg/kg infusion, vs saline extinction
Description: J. Neurosci., 16, 7416-7427.
Rats were initially trained to lever press for food pellets in standard operant boxes. Following lever press training, rats were implanted with polyvinyl chloride catheters into femoral veins under halothane anesthesia (2-3% in medical grade oxygen) and were allowed to recover for an additional 7 days before initiation of i.v. drug self-administration testing. During drug self-administration sessions, food pellets were no longer delivered, and instead intravenous injections of drugs were delivered by way of the catheter.
Following this second extinction test, self-administration of piperidine analog 2 was studied at doses of 1, 3, and 0.3 mg/kg/infusion in that order. Each dose was tested for five days. During all the re-acquisition test days, a priming infusion was given at the start of the session on each day.

dopamine transporter [5] = molecular target: T1, dopamine transporter; conditions: relative to cocaine
dopamine transporter [6] = molecular target: T1, dopamine transporter; conditions: relative to cocaine; remark: listed apart in the source
[7] = Drug discrimination, cocaine substitution and co-administration tests; type: in vivo, rats
[8] = Drug discrimination, amphetamine substitution tests; type: in vivo, rats; conditions: for response rates: across all test doses
Locomotor activity = type: in vivo, Sprague-Dawley rats
Description: The locomotor effects of compound 2 were evaluated using male Swiss Webster mice according to previously published procedures: Izenwasser, S., Terry, P., Heller, B., Witkin, J. M., and Katz, J. L. (1994) Differential relationships among dopamine transporter affinities and stimulant potencies of various uptake inhibitors. Eur. J. Pharmacol., 263, 277-283.
Thus the small behavioral responses to the piperidine analog appear to last longer than that of cocaine.

T1 sequence (P23977 whole entry): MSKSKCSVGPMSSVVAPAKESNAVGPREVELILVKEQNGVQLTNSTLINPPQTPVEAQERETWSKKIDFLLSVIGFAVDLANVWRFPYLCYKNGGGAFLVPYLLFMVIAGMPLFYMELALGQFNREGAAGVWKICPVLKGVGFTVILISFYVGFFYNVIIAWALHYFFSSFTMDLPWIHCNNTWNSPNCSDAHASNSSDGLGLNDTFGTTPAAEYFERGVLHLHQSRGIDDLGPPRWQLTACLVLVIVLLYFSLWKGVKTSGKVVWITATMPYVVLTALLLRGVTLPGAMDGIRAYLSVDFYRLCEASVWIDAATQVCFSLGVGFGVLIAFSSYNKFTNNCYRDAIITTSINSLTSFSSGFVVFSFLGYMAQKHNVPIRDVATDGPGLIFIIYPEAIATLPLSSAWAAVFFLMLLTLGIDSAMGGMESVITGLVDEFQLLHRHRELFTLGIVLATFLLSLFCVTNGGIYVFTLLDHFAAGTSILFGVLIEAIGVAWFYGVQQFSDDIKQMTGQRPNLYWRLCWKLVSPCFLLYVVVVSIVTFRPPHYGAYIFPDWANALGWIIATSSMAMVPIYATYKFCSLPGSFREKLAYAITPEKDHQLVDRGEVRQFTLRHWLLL

CC(=O)OCC1CN(C)CCC1c1ccc(Cl)cc1 (single isomer, unassigned; (-)) [(−)-7, (−)-3β-(Acetoxymnethyl)-4β-(4-chlorophenyl)-1-methylpiperidine]
IC50 (dopamine transporter [1]): 44.7 ± 10.5 nM
IC50 (dopamine transporter [2]): 62.9 ± 2.7 nM
melting point: 76 °C

CN1CCC(c2ccc(Cl)cc2)C(CO)C1 (single isomer, unassigned; (-)) [(−)-5, (−)-4β-(4-Chlorophenyl)-3β-(hydroxymethyl)-1-methylpiperidine]
IC50 (dopamine transporter [2]): 49 ± 3 nM

COC(=O)C1CN(C)CCC1c1ccc(Cl)cc1 (single isomer, unassigned; isomer 4) [cis isomer, 4-(4-chlorophenyl)-3-carbomethoxy-N-methylpiperidine]
accumulation in brain regions (dynamic PET) ([3]; 11C-labeled, PET images over 90 minutes): greater nonspecific accumulation in the cortex
specific binding to striatal dopamine transporter sites [3]: high levels of specific binding

COC(=O)C1CN(C)CCC1c1ccc(Cl)cc1 (single isomer, unassigned; (+)) [(+)-11, (+)-Methyl 4β-(4-chlorophenyl)-1-methylpiperidine-3α-carboxylate]
IC50 (dopamine transporter [1]): 57.3 ± 8.1 nM
IC50 (dopamine transporter [2]): 34.6 ± 3.2 nM

COC(=O)[C@@H]1CN(C)CC[C@@H]1c1ccc(Cl)cc1 (racemic) [Compound (±)-1, (±)-cis-Methyl 4-(4-Chlorophenyl)-1-methylpiperidine-3-carboxylate]
melting point: 98 to 99 °C

COC(=O)C1CN(C)CCC1c1ccc(Cl)cc1 (single isomer, unassigned; (-)) [(−)-3, (−)-Methyl 4β-(4-chlorophenyl)-1-methylpiperidine-3β-carboxylate]
IC50 (dopamine transporter [1]): 24.8 ± 1.6 nM
IC50 (dopamine transporter [2]): 85.2 ± 2.6 nM
self-administration responding [4]: rats reliably self-administered this compound

COC(=O)C1CN(C)CCC1c1ccc(Cl)cc1 (single isomer, unassigned; isomer 4) [trans isomer, 4-(4-chlorophenyl)-3-carbomethoxy-N-methylpiperidine]
specific binding to striatal dopamine transporter sites [3]: high levels of specific binding
striatal activity after unlabeled CFT ([3]; unlabeled CFT administered 60 minutes after injection): selective decrease in the striatal activity

CCCC1CN(C)CCC1c1ccc(Cl)cc1 (single isomer, unassigned; (+)) [(+)-15, (+) 4β-(4-chlorophenyl)-1-methyl-3α-n-propylpiperidine]
IC50 (dopamine transporter [1]): 17.2 ± 0.5 nM
IC50 (dopamine transporter [2]): 23.2 ± 2.2 nM

CCCC1CN(C)CCC1c1ccc(Cl)cc1 (single isomer, unassigned; (-)) [(−)-9, (−) 4β-(4-chlorophenyl)-1-methyl-3β-n-propylpiperidine]
IC50 (dopamine transporter [1]): 3 nM
fold more potent than cocaine in inhibition of dopamine uptake (dopamine transporter [5]): 29 fold
IC50 (dopamine transporter [2]): 8.3 ± 0.6 nM
fold more potent than cocaine in binding affinity (dopamine transporter [6]): 33 fold

COC(=O)C1CN(C)CCC1c1ccc(Cl)cc1 (racemic) [(±)-2, (±)-cis-Methyl 4-(4-Chlorophenyl)-1-methylpiperidine-3-carboxylate]
effect of co-administration on drug choice and response rate of cocaine ([7]; analog 2 10 mg/kg plus cocaine 1.25 and 5 mg/kg): did not significantly alter drug choice
response rates compared with cocaine (10 mg/kg) ([7]; analog 2 5 and 10 mg/kg): substantially lower
maximum cocaine-lever responding ([7]; analog 2 5 and 20 mg/kg): 40%
response rates [8]: remained fairly stable
number of infusions delivered ([4]; analog 2, all doses tested (0.3-3 mg/kg/infusion), vs saline extinction test): not significantly different from that of the saline extinction test
self-administration responding [4]: failed to restore the self-administration responding
time-course of stereotypic response (Locomotor activity; 90 minutes following the drug injection): persistent at 90 minutes
convulsions (Locomotor activity; doses higher than 20 mg/kg i.p.): produce convulsions
distance traveled (Locomotor activity; i.p., cocaine 10 mg/kg, analog 2 3-20 mg/kg, compared to saline control): did not alter the distance traveled
stereotypic behavior / stereotypic time (Locomotor activity; i.p., cocaine 10 mg/kg, analog 2 10 and 20 mg/kg, compared to saline control): small, statistically nonsignificant increase in stereotypic time

CC(N)Cc1ccccc1 (centres unmarked) [amphetamine]
response rates [8]: remained fairly stable
substitution for the discriminative stimulus effects of amphetamine ([8]; substitution tests): dose-dependent and complete substitution
